From patent US10294202B2, “Pyrrolidinones as herbicides” (FMC Corporation, priority 2013, dated 2019)

Legend:
ryegrass, Italian = assay: Test A pre-/postemergence herbicide test; format: in vivo, Lolium multiflorum
In short: (§1)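 Directed soil spray to seeded pots (preemergence) or spray onto one- to two-leaf seedlings 2–10 cm tall (postemergence); loam/sand substrate throughout. Evaluated visually after about 10 days against untreated plants, 0 = no effect, 100 = complete control.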

barnyardgrass [1] = assay: Test A pre-/postemergence herbicide test; format: in vivo, Echinochloa crus-galli
In short: as §1

sedge, umbrella = assay: Test B flooded paddy test; format: in vivo, Cyperus difformis; conditions: 500 g ai/ha, Flood; scale of 0 to 100 where 0 is no effect and 100 is complete control
In short: (§2)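 Scoring: visual, compared with untreated controls, 0 = no effect through 100 = complete control, taken 13 to 15 days after treatment in the greenhouse. Compounds had been added to paddy water over soil flooded 3 cm deep at the plants' 2-leaf stage.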

rice = assay: Test B flooded paddy test; format: in vivo, Oryza sativa; conditions: 500 g ai/ha, Flood; scale of 0 to 100 where 0 is no effect and 100 is complete control
In short: as §2

barnyardgrass [2] = assay: Test B flooded paddy test; format: in vivo, Echinochloa crus-galli; conditions: 500 g ai/ha, Flood; scale of 0 to 100 where 0 is no effect and 100 is complete control
In short: as §2

kochia = assay: Test A pre-/postemergence herbicide test; format: in vivo, Kochia scoparia
In short: as §1

corn = assay: Test A pre-/postemergence herbicide test; format: in vivo, Zea mays; conditions: Postemergence
In short: as §1

blackgrass = assay: Test A postemergence herbicide test; format: in vivo, Alopecurus myosuroides
In short: (§3)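 Young potted plants in a loam–sand mix, one- to two-leaf stage and 2–10 cm tall, receive the test chemical postemergence and stay in a greenhouse for approximately 10 days. Injury is then judged by eye against untreated plants, scored 0 (none) to 100 (complete control).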

galium = assay: Test A postemergence herbicide test; format: in vivo, Galium aparine
In short: as §3

wheat = assay: Test A pre-/postemergence herbicide test; format: in vivo, Triticum aestivum; conditions: Postemergence
In short: as §1

giant foxtail = assay: Test A pre-/postemergence herbicide test; format: in vivo, Setaria faberii
In short: as §1

ragweed = assay: Test A pre-/postemergence herbicide test; format: in vivo, Ambrosia elatior
In short: as §1

ducksalad = assay: Test B flooded paddy test; format: in vivo, Heteranthera limosa; conditions: 500 g ai/ha, Flood; scale of 0 to 100 where 0 is no effect and 100 is complete control
In short: as §2

pigweed = assay: Test A pre-/postemergence herbicide test; format: in vivo, Amaranthus retroflexus
In short: as §1

[3] = 125 g ai/ha, visual rating, 0 to 100 scale, 0 no effect, 100 complete control, approximately 10 days, preemergence
[4] = Postemergence, 125 g ai/ha, 0 to 100 scale, 0 is no effect, 100 is complete control
[5] = preemergence, 500 g ai/ha, 0 to 100 scale, 0 is no effect and 100 is complete control
[6] = 125 g ai/ha, 0 to 100 scale, 0 is no effect, 100 is complete control
[7] = Postemergence, 125 g ai/ha, visual rating on 0 to 100 scale (0 no effect, 100 complete control), approx. 10 days
[8] = Postemergence, 500 g ai/ha, 0 to 100 scale (0 no effect, 100 complete control)
[9] = Preemergence, 125 g ai/ha, 0 to 100 scale where 0 is no effect and 100 is complete control
[10] = Preemergence, 500 g ai/ha, visual rating on 0 to 100 scale (0 no effect, 100 complete control)
[11] = 125 g ai/ha, visual rating on 0 to 100 scale (0 no effect, 100 complete control), approx. 10 days
[12] = 500 g ai/ha, 0 to 100 scale (0 no effect, 100 complete control)
[13] = Postemergence, 125 g ai/ha, 0 to 100 scale, 0 no effect, 100 complete control
[14] = preemergence, 500 g ai/ha, 0 to 100 scale
[15] = 125 g ai/ha, 0 to 100 scale, 0 no effect, 100 complete control

Structure (SMILES): O=C1NCC(c2ccc(Cl)cc2)C1C(=O)Nc1ccccc1F (stereo not drawn) [Compound 217]
- Plant response rating, Ryegrass, Italian (ryegrass, Italian; [3]): 40
- Plant response rating, Ryegrass, Italian (ryegrass, Italian; [4]): 0
- Ryegrass, Italian plant response rating (0 to 100 scale, 0 is no effect, 100 is complete control) (ryegrass, Italian; Postemergence, 500 g ai/ha): 30
- Plant response rating, Ryegrass, Italian (ryegrass, Italian; [5]): 60
- Plant response rating, Barnyardgrass (barnyardgrass [1]; [3]): 70
- Plant response rating, Barnyardgrass (barnyardgrass [1]; [4]): 70
- Barnyardgrass plant response rating (0 to 100 scale, 0 is no effect, 100 is complete control) (barnyardgrass [1]; Postemergence, 500 g ai/ha): 90
- Plant response rating, Barnyardgrass (barnyardgrass [1]; [5]): 90
- Plant response rating, Sedge, Umbrella (sedge, umbrella): 0
- Plant response rating, Rice (rice): 0
- Plant response rating, Barnyardgrass (barnyardgrass [2]): 40
- Plant response rating, Kochia (kochia; [3]): 30
- Plant response rating, Kochia (kochia; [4]): 20
- Kochia plant response rating (0 to 100 scale, 0 is no effect, 100 is complete control) (kochia; Postemergence, 500 g ai/ha): 70
- Plant response rating, Kochia (kochia; [5]): 70
- Plant response rating, Corn (corn; [6]): 20
- Corn plant response rating (0 to 100 scale, 0 is no effect, 100 is complete control) (corn; 500 g ai/ha): 30
- Plant response rating, Blackgrass (blackgrass; [6]): 20
- Blackgrass plant response rating (0 to 100 scale, 0 is no effect, 100 is complete control) (blackgrass; 500 g ai/ha): 50
- Plant response rating, Galium (galium; [6]): 30
- Galium plant response rating (0 to 100 scale, 0 is no effect, 100 is complete control) (galium; 500 g ai/ha): 50
- Plant response rating, Wheat (wheat; [6]): 20
- Wheat plant response rating (0 to 100 scale, 0 is no effect, 100 is complete control) (wheat; 500 g ai/ha): 30
- Plant response rating, Foxtail, Giant (giant foxtail; [3]): 90
- Plant response rating, Foxtail, Giant (giant foxtail; [4]): 80
- Foxtail, Giant plant response rating (0 to 100 scale, 0 is no effect, 100 is complete control) (giant foxtail; Postemergence, 500 g ai/ha): 90
- Plant response rating, Foxtail, Giant (giant foxtail; [5]): 90
- Plant response rating, Ragweed (ragweed; [3]): 0
- Plant response rating, Ragweed (ragweed; [4]): 0
- Ragweed plant response rating (0 to 100 scale, 0 is no effect, 100 is complete control) (ragweed; Postemergence, 500 g ai/ha): 30
- Plant response rating, Ragweed (ragweed; [5]): 50
- Plant response rating, Ducksalad (ducksalad): 100
- Plant response rating, Pigweed (pigweed; [3]): 20
- Plant response rating, Pigweed (pigweed; [4]): 0
- Pigweed plant response rating (0 to 100 scale, 0 is no effect, 100 is complete control) (pigweed; Postemergence, 500 g ai/ha): 0
- Plant response rating, Pigweed (pigweed; [5]): 40

Structure (SMILES): O=C1NCC(c2cccc(Br)c2)C1C(=O)Nc1ccc(F)cc1F (stereo not drawn) [Compound 308]
- Plant response rating, Ryegrass, Italian (ryegrass, Italian; [7]): 0
- Plant response rating, Ryegrass, Italian (ryegrass, Italian; [8]): 0
- Plant response rating, Ryegrass, Italian (ryegrass, Italian; [9]): 0
- Ryegrass, Italian plant response rating (ryegrass, Italian; [10]): 0
- Plant response rating, Barnyardgrass (barnyardgrass [1]; [7]): 70
- Plant response rating, Barnyardgrass (barnyardgrass [1]; [8]): 70
- Plant response rating, Barnyardgrass (barnyardgrass [1]; [9]): 70
- Barnyardgrass plant response rating (barnyardgrass [1]; [10]): 80
- Plant response rating, Sedge, Umbrella (sedge, umbrella): 0
- Plant response rating, Rice (rice): 0
- Plant response rating, Barnyardgrass (barnyardgrass [2]): 70
- Plant response rating, Kochia (kochia; [7]): 0
- Plant response rating, Kochia (kochia; [8]): 0
- Plant response rating, Kochia (kochia; [9]): 0
- Kochia plant response rating (kochia; [10]): 0
- Plant response rating, Corn (corn; [11]): 0
- Plant response rating, Corn (corn; [12]): 10
- Plant response rating, Blackgrass (blackgrass; [11]): 50
- Plant response rating, Blackgrass (blackgrass; [12]): 70
- Plant response rating, Galium (galium; [11]): 0
- Plant response rating, Galium (galium; [12]): 0
- Plant response rating, Wheat (wheat; [11]): 0
- Plant response rating, Wheat (wheat; [12]): 20
- Plant response rating, Foxtail, Giant (giant foxtail; [7]): 70
- Plant response rating, Foxtail, Giant (giant foxtail; [8]): 80
- Plant response rating, Foxtail, Giant (giant foxtail; [9]): 80
- Foxtail, Giant plant response rating (giant foxtail; [10]): 90
- Plant response rating, Ragweed (ragweed; [7]): 0
- Plant response rating, Ragweed (ragweed; [8]): 0
- Plant response rating, Ragweed (ragweed; [9]): 0
- Ragweed plant response rating (ragweed; [10]): 0
- Plant response rating, Ducksalad (ducksalad): 90
- Plant response rating, Pigweed (pigweed; [7]): 0
- Plant response rating, Pigweed (pigweed; [8]): 0
- Plant response rating, Pigweed (pigweed; [9]): 0
- Pigweed plant response rating (pigweed; [10]): 0

Structure (SMILES): COc1cc(C2CNC(=O)C2C(=O)Nc2ccccc2Cl)ccc1F (racemic) [Compound 133]
- Plant response rating, Ryegrass, Italian (ryegrass, Italian; [3]): 0
- Plant response rating, Ryegrass, Italian (ryegrass, Italian; [13]): 0
- Ryegrass, Italian plant response rating (0 to 100 scale, 0 is no effect, 100 is complete control) (ryegrass, Italian; Postemergence, 500 g ai/ha): 0
- Plant response rating, Ryegrass, Italian (ryegrass, Italian; [14]): 0
- Plant response rating, Barnyardgrass (barnyardgrass [1]; [3]): 20
- Plant response rating, Barnyardgrass (barnyardgrass [1]; [13]): 30
- Barnyardgrass plant response rating (0 to 100 scale, 0 is no effect, 100 is complete control) (barnyardgrass [1]; Postemergence, 500 g ai/ha): 80
- Plant response rating, Barnyardgrass (barnyardgrass [1]; preemergence, 500 g ai/ha, 0 to 100 scale (0 no effect, 100 complete control)): 30
- Plant response rating, Sedge, Umbrella (sedge, umbrella): 0
- Plant response rating, Rice (rice): 0
- Plant response rating, Barnyardgrass (barnyardgrass [2]): 30
- Plant response rating, Kochia (kochia; [3]): 0
- Plant response rating, Kochia (kochia; [13]): 0
- Kochia plant response rating (0 to 100 scale, 0 is no effect, 100 is complete control) (kochia; Postemergence, 500 g ai/ha): 0
- Plant response rating, Kochia (kochia; [14]): 0
- Plant response rating, Corn (corn; [15]): 0
- Corn plant response rating (0 to 100 scale, 0 is no effect, 100 is complete control) (corn; 500 g ai/ha): 0
- Plant response rating, Blackgrass (blackgrass; [15]): 0
- Blackgrass plant response rating (0 to 100 scale, 0 is no effect, 100 is complete control) (blackgrass; 500 g ai/ha): 0
- Plant response rating, Galium (galium; [15]): 0
- Galium plant response rating (0 to 100 scale, 0 is no effect, 100 is complete control) (galium; 500 g ai/ha): 0
- Plant response rating, Wheat (wheat; [15]): 0
- Wheat plant response rating (0 to 100 scale, 0 is no effect, 100 is complete control) (wheat; 500 g ai/ha): 0
- Plant response rating, Foxtail, Giant (giant foxtail; [3]): 30
- Plant response rating, Foxtail, Giant (giant foxtail; [13]): 20
- Foxtail, Giant plant response rating (0 to 100 scale, 0 is no effect, 100 is complete control) (giant foxtail; Postemergence, 500 g ai/ha): 50
- Plant response rating, Foxtail, Giant (giant foxtail; [14]): 90
- Plant response rating, Ragweed (ragweed; [3]): 0
- Plant response rating, Ragweed (ragweed; [13]): 0
- Ragweed plant response rating (0 to 100 scale, 0 is no effect, 100 is complete control) (ragweed; Postemergence, 500 g ai/ha): 0
- Plant response rating, Ragweed (ragweed; [14]): 0
- Plant response rating, Ducksalad (ducksalad): 60
- Plant response rating, Pigweed (pigweed; [3]): 0
- Plant response rating, Pigweed (pigweed; [13]): 0
- Pigweed plant response rating (0 to 100 scale, 0 is no effect, 100 is complete control) (pigweed; Postemergence, 500 g ai/ha): 0
- Plant response rating, Pigweed (pigweed; [14]): 0
